In patent publication US20150306232A1, “HYDROGELATORS COMPRISING D-AMINO ACIDS” (BRANDEIS UNIVERSITY, priority 2012, published 2015):

Experiments:
HeLa cells = test: MTT cytotoxicity of Npx containing hydrogelators; format: cell-based
Protocol: The HeLa cells in good condition were seeded into 96-well plate (2×10^5 cells/well) in 100 μL of MEM medium with 10% FBS. With 12 hours of incubation at 37° C. and 5% CO2, the HeLa cells were attached to bottom of 96-well plate. Then the medium was replaced by another 100 μL of growth medium that contained serial diluents of our compounds and the cells were incubated at 37° C. and 5% CO2 for additional 72 hours. The compounds were stocked at 10 μM in DMSO, followed by further dilutions with MEM medium. All of these serial diluents were adjusted to contain 0.5% of DMSO.

[1] = rheological measurement of Npx containing hydrogels; format: physicochemical; conditions: hydrogel 0.8 wt %
Protocol: Rheological tests were conducted on TA ARES G2 rheometer with TA Orchestrator Software. 25 mm cone-plate was used during the experiment. 0.2 mL of hydrogel sample was placed on the cone-plate.
The measurement performs at the frequency of 6.28 rad/s (0.1 to 10% strain, frequency=10 rads^−1, 10 points per decade). Sweep mode is “log” and temperature was carried out at 25° C. The critical strain (γc) value was determined from the storage-strain profiles of the hydrogel sample. The strain applied to the hydrogel sample increased from 0.1 to 100% (10 rad/s and 25° C.). Over a certain strain, a drop in the elastic modulus was observed, and the strain amplitude at which storage moduli just begins to decrease by 5% from its maximum value was determined and taken as a measure of the critical strain of the hydrogels, which correspond to the breakdown of the cross-linked network in the hydrogel sample.
The frequency ranges from 200 rad/s to 0.1 rad/s, depending on the viscoelastic properties of each sample. A suitable strain was used to ensure the linearity of dynamic viscoelasticity.

[2] = in vitro release of hydrogelators from hydrogels; format: physicochemical; conditions: 0.8 wt % hydrogel, PBS pH 7.4, 37° C., after 24 hours
Protocol: After studying their drug efficacies, the sustained release of Npx-containing hydrogelators from 0.8 wt % of hydrogels was studied. We incubated 100 μL of hydrogels at 37° C. for 24 hours with 100 μL of PBS buffer solution (pH 7.4), which is refreshed and monitored at 1 h, 2 h, 4 h, 8 h, 12 h, and 24 h. […] After 24 hours, hydrogel 1 slowly and steadily released 6.5% of the hydrogelator. […] Hydrogels 5 and 6 release 35.8% and 31.7% of hydrogelators after 24 h.
To illustrate the in vitro release profile of hydrogelators, we prepared 100 μL of the hydrogels formed by 1 (0.8 wt %, pH 4.0), 2 (0.8 wt %, pH 7.6), 3 (0.8 wt %, pH 7.6), 4 (0.8 wt %, pH 7.6), 5 (0.8 wt %, pH 7.0), and 6 (0.8 wt %, pH 7.0). With the addition of PBS buffer (100 μL, pH 7.4) onto the surface of hydrogels, the gels were incubated at 37° C. for 24 hours. The release solutions (100 μL) were taken and refreshed at […], 2 h, 4 h, 8 h, 12 h, and 24 h, which were detected by analytical HPLC at 276 nm for the quantities of released Npx containing hydrogelators 1, 2, 3, 4, 5, and 6.

critical strain [1]: 1.6% | storage modulus G′ ([1]; 6.28 rad/s): 6.2×10^2 Pa | hydrogelator released from hydrogel [2]: 8.0%
Structure (SMILES): COc1ccc2cc([C@H](C)C(=O)N[C@H](Cc3ccccc3)C(=O)N[C@H](Cc3ccccc3)C(=O)N[C@H](Cc3ccc(O)cc3)C(=O)O)ccc2c1 [compound 2, Npx-ffy]
cell proliferation based on the numbers of HeLa cells (HeLa cells): no promotion of the cell proliferation
